Laboratory results reported in patent EP4635958A1, “PYRIMIDINE-CONTAINING POLYCYCLIC DERIVATIVE INHIBITOR, AND PREPARATION METHOD THEREFOR AND USE THEREOF” (Shanghai Hansoh Biomedical Co., Ltd., priority 2022, dated 2024).
Where two headings read alike, the source gives them in different places.

How the values were obtained:
AsPC-1 = assay: Inhibition of proliferation of KRAS G12D mutant tumor cell line AsPC-1 (CellTiter-Glo); format: cell-based; conditions: Homo sapiens, ASPC1, about 72 h
Method in brief: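 KRAS G12D-mutant AsPC-1 cells plated overnight at 37 °C/5% CO2, then exposed to serial compound dilutions (DMSO/medium, vehicle control) for about 72 h. Viability read by CellTiter-Glo luminescence; inhibition rate vs concentration fitted by nonlinear regression for IC50.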

[1] = Pharmacokinetic determination in rats (IV and PO, plasma, LCMS/MS); format: in vivo, SD rats; conditions: male SD rats; for AUC(0-inf) / C0 / clearance / half-life / Cmax / Tmax: rat, in vivo, overnight fasting, plasma; for AUC(0-inf): read-out: AUCo-∞; for C0: read-out: C0; for clearance: read-out: CL; for half-life: read-out: T1/2 (converted); for Cmax: read-out: Cmax; for Tmax: read-out: Tmax
Method in brief: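 Male SD rats (3/group), fasted overnight, dosed PO at 30 mg/kg in 10% Captisol/50 mM citrate pH 5.0 or IV at 1 mg/kg in 5% DMSO/10% Solutol HS15/85% PBS. Jugular plasma (EDTA-2K) sampled predose to 24 h; analysed by LCMS/MS.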

[2] = Plasma stability test, mouse plasma; format: in vitro ADME; conditions: Mouse plasma, 37°C; for half-life: read-out: t1/2 (converted);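 for all read-outs here: test compound quantified by LC-MS using positive-mode electrospray ionization and MRM scanning, with an internal standard added in acetonitrile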
Protocol: (§1) Liquid chromatography-mass spectrometer, centrifuge, vortexer, pipette, continuous dispenser, 96-well plate, 50% methanol aqueous solution, acetonitrile solution containing internal standard, blank matrix (plasma of rat, dog, or human), Propantheline (propantheline bromide), Mevinolin (lovastatin), and test compound.
(§2) After whole blood was collected from animals or humans, it was placed in a test tube containing an anticoagulant and centrifuged at 3500 rpm for 10 min to collect the upper pale yellow plasma.
(§3) The compound was weighed and the stock solution was formulated with DMSO and the working solution was formulated with 100 mM phosphate buffer.
(§4) • Instrument: API4000 liquid chromatography-mass spectrometer, AB Company, USA; • the ion source was electrospray ionization source (ESI); • drying gas (N2) temperature was 500°C; • electrospray voltage was 5500V; • the detection method was positive ion detection; • the scanning method was selected reaction monitoring (MRM); • the scanning time was 0.1s.

[3] = Plasma stability test, human plasma; format: in vitro ADME; conditions: Human plasma, 37°C; for half-life: read-out: t1/2 (converted);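 for all read-outs here: test compound incubated in human plasma, quantified by LC-MS/MS (positive-ion ESI, MRM) against an internal standard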
Protocol: as §1, §2, §3, §4

GP2D = assay: Inhibition of proliferation of KRAS G12D mutant tumor cell line GP2D (CellTiter-Glo); conditions: Homo sapiens, GP2d, 72 h, read-out: GP2D IC50
Protocol: Experimental method: When SNU-1, HPAF-II, Panc0403, AsPC-1 or GP2D cells were cultured to the appropriate confluence, and the SNU-1, HPAF-II, Panc0403, AsPC-1 or GP2D cells were collected. The cells were adjusted to the appropriate cell density using complete culture medium, the cell suspension was plated onto a 96-well plate at 90 µL per well, and the plate was placed in the incubator at 37°C and 5% CO2 for adherent culture overnight. Solutions of the compound with different concentrations were formulated using DMSO and culture medium. A vehicle control was set up. […] Then, CellTiter-Glo solution was added, and the obtained mixture was shaken and mixed evenly, incubated in the dark for 10 min, and read with a BioTek Synergy H1 microplate reader. […] Experimental data processing method: The luminescence signal value was used to calculate the inhibition rate. Graphpad Prism software was used to fit the concentration and inhibition rate to a nonlinear regression curve, so as to obtain the IC50 value.

SMILES	IC50 (AsPC-1) [nM]	AUC(0-inf) ([1]; IV, 1 mg/kg) [ng·h/mL]	C0 ([1]; IV, 1 mg/kg) [ng/mL]	clearance ([1]; IV, 1 mg/kg) [mL/min/kg]	half-life ([1]; IV, 1 mg/kg) [h]	AUC(0-inf) ([1]; PO, 30 mg/kg) [ng·h/mL]	Cmax ([1]; PO, 30 mg/kg) [ng/mL]	half-life ([1]; PO, 30 mg/kg) [h]	Tmax ([1]; PO, 30 mg/kg) [h]	Remaining rate (%) 0 min [2] [%]	Remaining rate (%) 15 min [2] [%]	Remaining rate (%) 30 min [2] [%]	Remaining rate (%) 60 min [2] [%]	Remaining rate (%) 120 min [2] [%]	half-life [2] [h]	Remaining rate (%) 0 min [3] [%]	Remaining rate (%) 15 min [3] [%]	Remaining rate (%) 30 min [3] [%]	Remaining rate (%) 60 min [3] [%]	Remaining rate (%) 120 min [3] [%]	also measured
[2H]C([2H])([2H])[C@@H]1Oc2nc(-c3cc(O)cc4ccc(F)c(C#C)c34)c(F)c3nc(OCC4(CN5CCC(=CF)CC5)CC4)nc(c23)N2C[C@H]3CC[C@H](N3)[C@@H]12 [Example 164]	6.6	774	838	21.5	17.6	1580	135	14	2	100.00	99.34	95.56	101.65	100.99	149	100.00	97.48	91.02	93.68	89.66	half-life [3]: 30.3 h; IC50 (GP2D): 0.32 nM
C#Cc1c(F)ccc2cc(O)cc(-c3nc4c5c(nc(OCC6(CN7CCC(=C(F)F)CC7)CC6)nc5c3F)N3C[C@H]5CC[C@H](N5)[C@H]3[C@H](C)O4)c12 [Example 19-1, 4-((5S,5aS,6S,9R)-12-((1-((4-(difluoromethylene)piperidin-1-yl)methyl)cyclopropyl)methoxy)-1-fluoro-5-methyl-5a,6,7,8,9,10-hexahydro-5H-4-oxa-3,10a,11,13,14-pentaaza-6,9-methylnaphtho[1,8-ab]hept-2-yl)-5-ethynyl-6-fluoronaphthalene-2-ol]	3.1	1900	1720	8.8	10.1	3080	329	8.2	2	100.00	101.30	98.20	91.51	92.09	27.4	100.00	95.61	93.15	85.08	83.37	F ([1]; PO 30 mg/kg vs IV 1 mg/kg): 5.4%; half-life [3]: 15.5 h; IC50 (GP2D): 0.16 nM
